{
  "source": "patent US9073916B2",
  "about": "“Prodrug forms of kinase inhibitors and their use in therapy” (AUCKLAND UNISERVICES LIMITED, priority 2009, dated 2015)",
  "key": {"[1]": {"experiment": "Pulse radiolysis (E(1) and fragmentation rate)", "assay_type": "physicochemical", "conditions": "for kfrag. (fragmentation rate constant upon 1-electron reduction): benzyl-type radical formation; for E (1)/V (one-electron reduction potential): determined against methylviologen"}, "[2]": {"test_system": "A431 xenografts", "experiment": "In vivo efficacy in A431 xenografts", "method": "(§1) Specific pathogen-free homozygous female CD-1 nude mice (Charles River Laboratories, Wilmington, Mass.) were inoculated subcutaneously with a single cell suspension of A431 cells (5×10^6 cells/100 pt; right flank). When A431 tumour xenografts were established (typically 6-10 days) mice were randomized to treatment groups. All compounds were prepared in lactate buffer (pH4). Mice were dosed by intraperitoneal injection (0.01-0.03 ml/g) using the stated schedules and dose levels. Tumour size and body weights were measured at regular intervals. Tumour volume was calculated as π (length×width^2)/6. […] Differences in RTV^4 were tested for statistical difference by Mann Whitney U test using SigmaStat v3.5."}, "[3]": {"test_system": "SKOV3 xenografts", "experiment": "In vivo efficacy in SKOV3 xenografts", "parameters": "species or system mice", "method": "as §1, with “NIH-III” for “CD-1”, “SKOV3” for “A431”, “(1×10^7” for “(5×10^6”, “μL;” for “pt;”, “50-65” for “6-10”\nas §1, with “NIH-III” for “CD-1”, “SKOV3” for “A431”, “(1×10^7” for “(5×10^6”, “μL;” for “pt;”, “50-65” for “6-10”, “Compounds 42 and 161” for “All compounds”"}, "[4]": {"experiment": "in vivo", "conditions": "female, NIH-III nude, mouse, ip, pH 4"}, "[5]": {"test_system": "A431 cells", "experiment": "Cellular growth inhibition (sulforhodamine B)", "description": "Human A431, BT474, SKBR3, SKOV3, SW620, H1975 and HT29 carcinoma cells in log phase exponential growth in alpha minimal essential media (αMEM) containing 5% fetal bovine serum (FBS), were harvested by trypsinisation (1× trypsin/EDTA, Gibco Brl), counted, and seeded into 96 well plates (Nunc) at cell densities ranging from 800-1500 cells/well. Half of the cell samples were seeded into plates that were pre-equilibrated and held in an anoxic environment (90% N2, 5% H2, 5% CO2, 37° Q Anaerobic chamber, Coy Laboratory Products). […] At the end of this period the anoxic plates were recovered from the anaerobic camber and held under normoxia in a standard CO2 incubator (37° C.) for 20 hours. All plates were washed free of compound and cells were allowed to proliferate for a further 4 days in αMEM containing 5% FBS+antibiotics. Cells were fixed in trichloroacteic acid (30 min), washed and stained with sulforhodamine B (SRB, 60 min) prior to washing in acidified water. SRB was solubilised and absorption read at 450 nm to calculate cell densities. Inhibition of proliferation was calculated relative to untreated control wells.\nHuman A431, H1975 and SKOV3 carcinoma cells in log phase exponential growth in alpha minimal essential media (αMEM) containing 5% fetal bovine serum (FBS), were harvested by trypsinisation (1× trypsin/EDTA, Gibco Brl), counted, and seeded into 96 well plates (Nunc) at cell densities ranging from 800-1500 cells/well. Half of the cell samples were seeded into plates that were pre-equilibrated and held in an anoxic environment (90% N2, 5% H2, 5% CO2, 37° C.; Anaerobic chamber, Coy Laboratory Products). […] At the end of this period the anoxic plates were recovered from the anaerobic camber and held under normoxia in a standard CO2 incubator (37° C.) for 20 hours. All plates were washed free of compound and cells were allowed to proliferate for a further 4 days in αMEM containing 5% FBS+antibiotics. Cells were fixed in trichloroacteic acid (30 min), washed and stained with sulforhodamine B (SRB, 60 min) prior to washing in acidified water. SRB was solubilised and absorption read at 450 nm to calculate cell densities. Inhibition of proliferation was calculated relative to untreated control wells."}, "[6]": {"molecular_target": "erbB1 (Homo sapiens, UniProt P00533)", "sequence (P00533 25-1210)": "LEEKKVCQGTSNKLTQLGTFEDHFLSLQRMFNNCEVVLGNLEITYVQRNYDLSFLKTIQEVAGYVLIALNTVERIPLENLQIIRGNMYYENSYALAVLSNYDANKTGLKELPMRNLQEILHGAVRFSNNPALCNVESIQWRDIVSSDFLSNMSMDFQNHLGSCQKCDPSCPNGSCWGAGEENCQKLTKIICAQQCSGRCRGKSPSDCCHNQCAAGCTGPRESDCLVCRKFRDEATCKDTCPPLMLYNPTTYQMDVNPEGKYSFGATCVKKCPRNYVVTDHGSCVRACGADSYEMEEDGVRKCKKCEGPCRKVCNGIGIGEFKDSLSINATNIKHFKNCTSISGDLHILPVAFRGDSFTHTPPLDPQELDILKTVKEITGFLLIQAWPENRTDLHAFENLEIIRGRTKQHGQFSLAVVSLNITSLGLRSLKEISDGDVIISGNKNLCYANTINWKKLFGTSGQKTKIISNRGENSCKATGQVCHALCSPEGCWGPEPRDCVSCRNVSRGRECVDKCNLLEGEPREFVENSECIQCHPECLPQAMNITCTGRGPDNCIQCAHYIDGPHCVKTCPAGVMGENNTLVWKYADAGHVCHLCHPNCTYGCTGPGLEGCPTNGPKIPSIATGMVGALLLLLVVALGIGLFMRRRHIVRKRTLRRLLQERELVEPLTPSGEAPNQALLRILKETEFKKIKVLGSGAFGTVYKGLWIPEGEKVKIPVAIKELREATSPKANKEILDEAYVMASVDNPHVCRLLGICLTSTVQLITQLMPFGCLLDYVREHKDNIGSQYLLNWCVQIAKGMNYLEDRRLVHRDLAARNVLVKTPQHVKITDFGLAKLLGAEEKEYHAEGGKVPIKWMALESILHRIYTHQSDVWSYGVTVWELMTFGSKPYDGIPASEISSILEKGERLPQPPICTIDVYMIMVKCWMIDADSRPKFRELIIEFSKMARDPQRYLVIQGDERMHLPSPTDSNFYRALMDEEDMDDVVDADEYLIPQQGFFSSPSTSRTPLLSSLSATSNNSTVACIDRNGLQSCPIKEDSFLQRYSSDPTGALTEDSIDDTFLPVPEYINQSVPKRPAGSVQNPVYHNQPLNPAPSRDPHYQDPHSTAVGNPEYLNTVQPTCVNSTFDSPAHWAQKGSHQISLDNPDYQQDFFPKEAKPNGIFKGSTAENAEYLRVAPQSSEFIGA", "experiment": "Inhibition of erbB1 autophosphorylation in EGF-stimulated intact A431 cells (Western blot)"}, "[7]": {"molecular_target": "erbB2 (Homo sapiens, UniProt P04626)", "sequence (P04626 23-1255)": "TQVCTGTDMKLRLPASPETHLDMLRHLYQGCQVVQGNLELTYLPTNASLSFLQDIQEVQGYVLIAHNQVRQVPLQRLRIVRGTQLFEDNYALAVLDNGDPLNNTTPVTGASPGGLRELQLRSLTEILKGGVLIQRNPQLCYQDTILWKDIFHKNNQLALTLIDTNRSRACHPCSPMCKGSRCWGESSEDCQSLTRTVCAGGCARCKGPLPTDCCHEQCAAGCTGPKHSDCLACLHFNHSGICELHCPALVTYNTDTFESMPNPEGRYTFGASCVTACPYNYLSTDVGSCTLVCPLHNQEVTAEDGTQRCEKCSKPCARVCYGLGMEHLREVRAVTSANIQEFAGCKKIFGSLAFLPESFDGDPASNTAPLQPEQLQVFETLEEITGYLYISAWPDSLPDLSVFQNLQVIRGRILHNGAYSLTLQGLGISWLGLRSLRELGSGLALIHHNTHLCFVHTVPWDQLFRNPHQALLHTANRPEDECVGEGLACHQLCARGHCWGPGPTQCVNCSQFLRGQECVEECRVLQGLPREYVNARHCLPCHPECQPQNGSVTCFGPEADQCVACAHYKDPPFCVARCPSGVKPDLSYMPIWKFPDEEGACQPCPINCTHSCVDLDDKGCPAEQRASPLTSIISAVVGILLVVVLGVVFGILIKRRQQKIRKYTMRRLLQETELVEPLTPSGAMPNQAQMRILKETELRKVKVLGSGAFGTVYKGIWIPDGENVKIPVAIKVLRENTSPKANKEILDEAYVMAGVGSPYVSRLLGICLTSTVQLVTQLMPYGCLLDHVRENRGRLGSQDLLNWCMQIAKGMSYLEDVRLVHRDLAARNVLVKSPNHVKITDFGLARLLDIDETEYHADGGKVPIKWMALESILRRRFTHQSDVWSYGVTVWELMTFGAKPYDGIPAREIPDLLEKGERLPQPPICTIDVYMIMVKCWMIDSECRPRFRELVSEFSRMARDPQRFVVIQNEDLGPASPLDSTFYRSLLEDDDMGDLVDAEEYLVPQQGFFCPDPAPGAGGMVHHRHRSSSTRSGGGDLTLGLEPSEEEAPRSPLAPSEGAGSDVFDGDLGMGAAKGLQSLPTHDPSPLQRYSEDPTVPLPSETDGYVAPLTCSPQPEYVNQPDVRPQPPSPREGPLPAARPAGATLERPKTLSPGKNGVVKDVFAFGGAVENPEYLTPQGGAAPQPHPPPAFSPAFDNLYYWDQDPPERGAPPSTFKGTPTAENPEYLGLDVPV", "experiment": "Isolated enzyme inhibition (Invitrogen Z′-LYTE kinase assay)", "assay_type": "biochemical", "conditions": "10 μM ATP, duplicate"}, "[8]": {"molecular_target": "erbB4 (Homo sapiens, UniProt Q15303)", "sequence (Q15303 26-1308)": "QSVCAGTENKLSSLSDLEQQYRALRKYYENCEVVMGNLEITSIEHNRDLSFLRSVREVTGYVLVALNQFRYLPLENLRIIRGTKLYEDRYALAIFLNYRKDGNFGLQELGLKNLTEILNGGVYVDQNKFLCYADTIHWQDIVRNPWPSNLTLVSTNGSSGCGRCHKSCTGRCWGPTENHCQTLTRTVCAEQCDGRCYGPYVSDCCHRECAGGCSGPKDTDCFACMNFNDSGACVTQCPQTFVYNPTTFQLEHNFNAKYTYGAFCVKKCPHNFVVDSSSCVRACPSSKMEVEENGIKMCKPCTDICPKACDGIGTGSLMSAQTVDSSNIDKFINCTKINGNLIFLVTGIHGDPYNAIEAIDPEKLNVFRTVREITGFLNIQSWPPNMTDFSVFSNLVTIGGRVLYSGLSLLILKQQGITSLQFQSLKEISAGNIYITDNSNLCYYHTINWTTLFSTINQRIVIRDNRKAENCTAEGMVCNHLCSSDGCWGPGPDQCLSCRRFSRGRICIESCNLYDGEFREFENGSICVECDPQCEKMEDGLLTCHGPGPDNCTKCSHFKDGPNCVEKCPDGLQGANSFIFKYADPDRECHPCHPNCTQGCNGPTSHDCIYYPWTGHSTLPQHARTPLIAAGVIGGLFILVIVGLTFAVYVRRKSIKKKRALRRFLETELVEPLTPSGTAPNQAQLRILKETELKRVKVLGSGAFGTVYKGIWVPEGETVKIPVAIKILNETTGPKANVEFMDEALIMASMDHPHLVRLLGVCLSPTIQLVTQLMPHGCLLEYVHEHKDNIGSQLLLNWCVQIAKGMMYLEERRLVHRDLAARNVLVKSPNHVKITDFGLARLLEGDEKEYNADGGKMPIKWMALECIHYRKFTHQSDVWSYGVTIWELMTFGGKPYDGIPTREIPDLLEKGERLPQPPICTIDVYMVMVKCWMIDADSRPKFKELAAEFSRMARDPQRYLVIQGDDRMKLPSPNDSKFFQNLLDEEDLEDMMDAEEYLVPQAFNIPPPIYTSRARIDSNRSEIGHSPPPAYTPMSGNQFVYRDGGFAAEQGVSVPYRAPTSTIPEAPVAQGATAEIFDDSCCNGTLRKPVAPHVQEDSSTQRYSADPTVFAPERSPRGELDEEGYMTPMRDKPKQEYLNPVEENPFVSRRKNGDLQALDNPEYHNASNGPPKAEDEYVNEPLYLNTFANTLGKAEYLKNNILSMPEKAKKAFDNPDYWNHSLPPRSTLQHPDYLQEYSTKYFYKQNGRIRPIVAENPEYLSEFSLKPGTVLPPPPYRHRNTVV", "experiment": "Isolated enzyme inhibition (Invitrogen Z′-LYTE kinase assay)", "assay_type": "biochemical", "conditions": "10 μM ATP, duplicate"}},
  "note": "Where two headings read alike, the source gives them in different places.",
  "data": [
    {"smiles": "Cn1cnc([N+](=O)[O-])c1C[N+](C)(C)C/C=C/C(=O)Nc1cc2c(Nc3ccc(F)c(Br)c3)ncnc2cn1", "note": "[Compound 42, (2E)-4-{[4-(3-bromo-4-fluoroanilino)pyrido[3,4-d]pyrimidin-6-yl]amino}-N,N-dimethyl-N-[(1-methyl-4-nitro-1H-imidazol-5-yl)methyl]-4-oxo-2-buten-1-ammonium bromide]", "values": [
      {"measurement": "kfrag. (fragmentation rate constant upon 1-electron reduction)", "setting": "[1]", "result": "50 ± 10", "unit": "s⁻¹"},
      {"measurement": "E (1)/V (one-electron reduction potential)", "setting": "[1]", "result": "−0.425±0.008", "unit": "V"},
      {"measurement": "tumour growth inhibition (TGI)", "setting": "[2]; large A431 xenografts, 20 mg/kg/dose, q3dx8, IP", "result": 400, "unit": "%"},
      {"measurement": "tumour growth inhibition (TGI)", "setting": "[2]; large A431 xenografts, 40 mg/kg/dose, q3dx8, IP", "result": 800, "unit": "%"},
      {"measurement": "tumour growth inhibition (TGI)", "setting": "[2]; large A431 xenografts, 60 mg/kg/dose, q3dx8, IP", "result": 786, "unit": "%"},
      {"measurement": "tumour growth inhibition (TGI)", "setting": "[2]; large A431 xenografts, 80 mg/kg/dose, q3dx8, IP", "result": 843, "unit": "%"},
      {"measurement": "efficacy by growth delay", "setting": "[3]; 100 (42) and 31.6 (161) μmol/kg/dose, q3dx9, IP", "result": "superior efficacy to compound 161"},
      {"measurement": "deaths", "setting": "[3]; q3dx9, 100 (42) and 31.6 (161) μmol/kg/dose", "result": "0/7"},
      {"measurement": "MTD", "setting": "[4]", "result": 133, "unit": "µmol/kg"},
      {"measurement": "IC50", "setting": "[5]; Homo sapiens, A-431, 4 h, read-out: Cellular Growth Inhibition IC50 A431 Anoxic", "result": 75, "unit": "nM"},
      {"measurement": "IC50", "setting": "[5]; Homo sapiens, A-431, 24 h, read-out: Cellular Growth Inhibition IC50 A431 Oxic", "result": 1690, "unit": "nM"},
      {"measurement": "A431 Deact.", "setting": "[5]; Table 9", "result": 56, "unit": "fold"},
      {"measurement": "A431 HCR", "setting": "[5]; Table 9", "result": 60.0, "unit": "fold"},
      {"measurement": "IC50", "setting": "[6]", "result": 411, "unit": "nM"},
      {"measurement": "Deact. erbB1 (fold reduction in cellular inhibition relative to the parent kinase inhibitor)", "setting": "[6]; Table 8, A431 cells", "result": 82, "unit": "fold"}
    ]},
    {"smiles": "Cn1cnc([N+](=O)[O-])c1C[N+](C)(C)C/C=C/C(=O)Nc1ccc2ncnc(Nc3cccc(Br)c3)c2c1.[Br-]", "note": "[Compound 20, (2E)-4-{[4-(3-bromoanilino)-6-quinazolinyl]amino}-N,N-dimethyl-N-[(1-methyl-4-nitro-1H-imidazol-5-yl)methyl]-4-oxo-2-buten-1-ammonium bromide]", "values": [
      {"measurement": "IC50", "setting": "[7]", "result": 112, "unit": "nM"},
      {"measurement": "IC50", "setting": "[8]", "result": 85, "unit": "nM"},
      {"measurement": "kfrag. (fragmentation rate constant upon 1-electron reduction)", "setting": "[1]", "result": "130 ± 10", "unit": "s⁻¹"},
      {"measurement": "E (1)/V (one-electron reduction potential)", "setting": "[1]", "result": "−0.427", "unit": "V"},
      {"measurement": "efficacy by growth delay", "setting": "[2]; A431 xenografts, equitoxic dose (63% of single dose MTD), q4dx6, IP", "result": "superior efficacy to effector 11"},
      {"measurement": "tumour growth inhibition (TGI)", "setting": "[2]; A431 xenografts, q4dx3 at MTD, IP in lactate buffer", "result": "> 210", "unit": "%"},
      {"measurement": "deaths", "setting": "[2]; A431 xenografts, q4dx6, 63% of single dose MTD", "result": "0/12"},
      {"measurement": "efficacy by growth delay", "setting": "[3]; 133 (20) and 56 (11) umol/kg/dose, q3dx6, IP", "result": "superior efficacy to effector 11"},
      {"measurement": "deaths", "setting": "[3]; q3dx6, 133 (20) and 56 (11) umol/kg/dose", "result": "0/7"},
      {"measurement": "effector AUC as share of prodrug AUC", "setting": "compound 11 in plasma after dosing prodrug 20", "result": "one"},
      {"measurement": "AUC0-250 min Effector", "setting": "effector (compound 11) in plasma after dosing prodrug", "result": 2.7, "unit": "µM·h"},
      {"measurement": "AUC0-250 min Parent", "setting": "plasma, IP, 42% of single dose MTD, predicted from modelled curves", "result": 279, "unit": "µM·h"},
      {"measurement": "IC50", "setting": "[5]; read-out: Cellular Growth Inhibition IC50 A431 Anoxic, Table 3, first 4 hours of 24 hour exposure anoxic", "result": 78, "unit": "nM"},
      {"measurement": "IC50", "setting": "[5]; read-out: Cellular Growth Inhibition IC50 A431 Oxic, Table 3, 24 hour exposure entirely oxic", "result": 2090, "unit": "nM"},
      {"measurement": "IC50", "setting": "[6]; read-out: cellular erbB1 autophosphorylation IC50, intact A431 cells", "result": 555, "unit": "nM"}
    ]}
  ]
}
